These results are taken from a melting point compilation (Tetko et al.; mined from patent text by program, amines drawn as free bases though some values may be those of a salt).

As usually defined, the melting point is the temperature, or range, at which the solid turns liquid. Take `CCN(CC)CCOC(=O)C1=C(C)Nc2ccnc(OC(C)C)c2C1c1ccccc1C(F)(F)F` (stereo unspecified): the melting point is 198 to 200 °C.

Regarding `O=C(CCC1OC=CO1)c1ccc2c(c1)OCO2`, the melting point lay within 94 to 96 °C.

`CN1CCN(c2ccc(-c3nc4c(N[C@H]5[C@@H](C(N)=O)[C@@H]6C=C[C@H]5C6)c(Br)cnc4[nH]3)cc2)CC1` registered a melting point of 215 to 218 °C.

As for `CC(C)Oc1ccc(C[C@H](NC(=O)[C@@H]2CCCCN2S(=O)(=O)c2cccc(C(F)(F)F)c2)C(=O)NC2CCOCC2)cc1`, the melting point came to 78.6 °C.

Regarding `Cc1ccc(S(=O)(=O)Cc2ccc([N+](=O)[O-])cc2)cc1`, the melting point lay in the range of 188 to 190 °C.

Take `CC(C)(C)OC(=O)N1CC[C@H](c2ccc3c(c2)OCO3)[C@@H](OCc2ccc3ccccc3c2)C1` (racemic): the melting point was in the range of 128 to 129 °C.

Compound `C=CCOC(=O)CC(=O)NC1C(=O)N2C1SC(C)(C)C2C(=O)OCC=C` (stereo unspecified) came in with a melting point of 59 to 60 °C.

For `O=C(O)/C=C/c1c(C2CC2)nc2ccccc2c1-c1ccc(F)cc1`, the melting point was 173 to 174 °C.

`O=c1ccn(-c2ccccc2)nc1-c1ccnn1-c1ccccc1` registered a melting point of 179 to 180 °C.

For `CC(C)(C)C1=CC(=S)N=N1`, the melting point is 147 to 148 °C.

`Oc1ccc(Nc2nccc(-c3ccncc3)n2)cc1`: the melting point fell in the range of 268 to 270 °C.

The compound `COc1ccc2c(Cc3c(Cl)cncc3Cl)nn(CC(=O)O)c(=O)c2c1` showed a melting point of 221 to 222 °C.

In turn, `O=Cc1ccc(OCCCN2C(=O)c3ccccc3C2=O)cc1` had a melting point of 120 to 121 °C.

In turn, `COc1ccc(C2(C#Cc3ccncc3)CCC(=O)CC2)cc1OC1CCCC1` came in with a melting point of 88 to 89 °C.

The compound `COC(=O)c1cc2cc(Cl)c(Cl)cc2nc1Cl` returned a melting point of 178 to 180 °C.

Regarding `CCN(CC)CCNc1cccc2c1C(=O)c1cccc(NCCN(CC)CC)c1C2=O`, the melting point was 158 to 160 °C.

`Nc1ccc(Oc2ccc3c(c2)OCC(=O)N3)cc1` registered a melting point of 201 to 202 °C.

The compound `Cc1coc(C)c1-c1nc2ccc(C(=O)c3ccccc3)cc2[nH]1` came in with a melting point of 203 to 208 °C.

Consider `CCOC(=O)c1nn(-c2ccccc2)c2c1CSc1ccccc1-2`, for which the melting point is 139 to 141 °C.

Consider `CC(=O)Nc1ncc(/C=C\c2ccc([N+](=O)[O-])cc2)s1`, for which the melting point lay in the range of 221 to 223 °C.

`COc1ccc(C#Cc2ccc3c(Nc4cc(OC)c(Cl)cc4Cl)c(C#N)cnc3c2)cc1` registered a melting point of 225 to 226 °C.

`CCOC(=O)c1[nH]c2c(C)ccc(C)c2c1-c1ccccc1` displayed a melting point of 107 to 108 °C.

Consider `C=C(CCC)C(=O)c1cc2oc(C(=O)O)cc2c(C)c1C`, for which the melting point came out at 172 °C.

In the case of `CCCCc1nc2c(N)nc3ccccc3c2n1CCCCCCCCNC(=O)c1ccccc1`, the melting point is 150 to 151 °C.

The compound `COc1ccc(C(=O)NN=C(N)N)c(F)c1` returned a melting point of 220 °C.

Compound `CC(Oc1cc(-c2ccccc2)nc2ccccc12)C(=O)N1CCSCC1` (stereo unspecified) showed a melting point of 198 °C.

The compound `O=C(O)Cc1cccc2c1NC(=O)C2` showed a melting point of 234 to 236 °C.

Regarding `COC(=O)Nc1nc2ccc(Oc3ccccn3)cc2[nH]1`, the melting point fell in the range of 246 to 253 °C.

The compound `CCOC(=O)c1ncoc1-c1cc(Cl)nc(Cl)c1` came in with a melting point of 108 to 109 °C.

In the case of `c1ccc2c(c1)c1nncn1c1c(-c3noc(C4CC4)n3)ncn21`, the melting point lay within 308 to 314 °C.

`Cc1ccc(N=C(Nc2ccc(C)cc2)ON2C(C)(C)CC(OC(=O)c3ccccc3)CC2(C)C)cc1`: the melting point is 124 to 128 °C.

As to `Clc1cc(Oc2ccc3[nH]ccc3c2)ncn1`, the melting point lay in the range of 137 to 138 °C.

As to `CCS(=O)(=O)N(C(C)=O)c1cc(-c2ncnc(C(F)(F)F)c2Cl)c(F)cc1C#N`, the melting point lay in the range of 144 to 146 °C.

`Cc1[nH]c2ncnc(Nc3cccc(Br)c3)c2c1C` came in with a melting point of 243 to 244 °C.

With `O=c1nc(-c2ccccc2)oc2ccccc12`, the melting point lay in the range of 104 to 105 °C.

Consider `COc1cc(C=O)ccc1OCc1nc(-c2cccc([N+](=O)[O-])c2)oc1C`, for which the melting point lay within 179 to 180 °C.

Regarding `CC(COc1ccc(CC2SC(=O)NC2=O)cc1)N1CC(COc2ccccc2)OC1=O` (stereo unspecified), the melting point lay in the range of 54 to 56 °C.

Turning to `CCc1c2n(c3ccccc13)C(=O)C(Cc1nc[nH]c1C)CC2` (stereo unspecified), the melting point fell in the range of 222 to 224 °C.

In turn, `CCCCCCCCC1C=CC(Oc2ccc(C(=O)O)o2)=C2N=C3CCCCC3=C21` (stereo unspecified) had a melting point of 130 to 132 °C.

Consider `O=C1[C@H]2CCC[C@H]2N(C(=O)Cn2ccnc2)c2ccccc2N1Cc1ccccc1` (relative stereo), for which the melting point is 183 to 184 °C.

The compound `CN(C)C(=O)c1cc(C(=O)O)c2cc(Cc3ccc(F)cc3)cnc2c1O` showed a melting point of 214 to 216 °C.

In turn, `COCCn1nc(C(=O)NCc2ccc(OC(C)(C)C(=O)O)c(C)c2)cc1-c1ccc(C(C)(C)C)cc1` returned a melting point of 65 °C.

For `CCCN(CCC(O)c1csc2ccc(F)cc12)C1COc2c(F)ccc(C(N)=O)c2C1` (stereo unspecified), the melting point worked out at 117 °C.

For `Cc1nc(Cl)c2c(c1O)COC2(c1ccccc1)c1cccc(Cl)c1Cl` (stereo unspecified), the melting point came to 221 °C.

For the compound `CC(=O)Nc1ccc(S(=O)(=O)N(Cc2cc(C(C)(C)C)c(O)c(C(C)(C)C)c2)c2cccnc2)cc1`, the melting point was 167 to 169 °C.

`COc1ccc(-c2nc(SCC=O)sc2-c2ccc(OC)cc2)cc1` came in with a melting point of 75 to 76 °C.

Take `Cc1nc2cc(NC(=O)c3cc4cccnc4n3Cc3ccncc3)ccc2s1`: the melting point lay in the range of 211 to 236 °C.

`CC(=O)n1cc(O)c2cc(Br)ccc21` displayed a melting point of 180 to 182 °C.

Regarding `CCCCCCS(=O)(=O)c1ccc(S(=O)(=O)CCCCCC)nc1`, the melting point was in the range of 135 to 136 °C.

Turning to `COCCc1nc2c(N)nc3ccccc3c2n1CCCCC(=O)N1CCOCC1`, the melting point lay in the range of 128 to 129 °C.

On to `Oc1ccc(CCCC2OCCO2)cc1`, for which the melting point lay within 67 to 68 °C.

In turn, `CCCCc1ncc(/C=C(\Cc2cccs2)C(=O)O)n1Cc1ccc(C(=O)O)cc1Cl` returned a melting point of 234 to 236 °C.

For `CC(=O)NCc1ccc2c(Cl)cn(C3CCN(CCc4ccc(F)cc4)CC3)c2c1`, the melting point was in the range of 101 to 102 °C.

In turn, `Cn1cnc2nc(-c3ccc(-c4ccccc4)cc3)nn2c1=S` displayed a melting point of 297 to 299 °C.

For the compound `Cc1ccc(S(=O)(=O)N2CCN(c3ccc(O)cc3)CC2)cc1`, the melting point is 193 °C.

`CN1CCC23c4c5ccc(OCCCCN)c4CC1C2C=CC(O)C3O5` (stereo unspecified) had a melting point of 140 to 142 °C.

For `CC(=O)OCc1ccc2oc(=O)c(C(=O)Oc3cc(F)ccc3[N+](=O)[O-])cc2c1`, the melting point fell in the range of 157 to 161 °C.

As to `Cc1cc(Oc2ccccc2)ccc1[N+](=O)[O-]`, the melting point was 43 to 46 °C.

Turning to `O=C(c1ccccn1)c1csc(-c2ccccc2)n1`, the melting point lay within 95 to 97 °C.

Regarding `Cc1cc(SC2=C(O)CC(CCc3cccnc3)(C(C)C)OC2=O)c(C(C)(C)C)cc1CO` (stereo unspecified), the melting point lay within 122 to 125 °C.

`FC(F)(F)c1cccnc1N1CCN(c2nc3ccc(Cl)cc3[nH]2)CC1` had a melting point of 228 to 231 °C.

The compound `CC(C)Cn1c(=O)n(C)c(=O)c2c(SCCC(C)O)c(Cc3cccc4ccccc34)sc21` (stereo unspecified) yielded a melting point of 162 to 163 °C.

`CS(=O)(=O)CC(O)(Cn1cncn1)C(F)(F)C(F)(F)C(F)(F)C(F)(F)F` (stereo unspecified) registered a melting point of 106 to 109 °C.

As for `CC(C)CN1C(=O)C(C)(C)C(=O)Nc2cc(C=O)ccc21`, the melting point was 154 to 155 °C.

On to `CC(C)(C)c1cc(CCCBr)cc(C(C)(C)C)c1O`, for which the melting point lay within 52 to 54 °C.

Regarding `COc1cc2c(Nc3ccc(Cl)cc3F)ncnc2cc1OCCN1CCSCC1`, the melting point lay in the range of 181 to 182 °C.

Compound `CC(C)(C)c1ccc(OS(C)(=O)=O)c(C(C)(C)C)c1` had a melting point of 63 °C.

In turn, `CCCCCOc1cc(C(=O)O)ccc1OC` returned a melting point of 125 °C.

`O=C1NC(=O)C(N2C(=O)c3ccccc3C2=O)CC1O` (stereo unspecified) had a melting point of 195 to 230 °C.

Regarding `CCOC(=O)Cc1ccc(-c2nc(COc3ccc(COc4nn(-c5ccccc5)cc4/C=C/c4coc(C(C)C)n4)cc3OC)c(C)o2)cc1`, the melting point was 106 to 108 °C.

As to `C=CCc1cc2c(c(CC=C)c1OC1CCCCO1)CCC(=O)N2CCC#N` (stereo unspecified), the melting point lay within 93 to 94 °C.

Consider `COCC(=O)N(c1c(C)ccc(CC(=O)Nc2cc(Cl)cc(Cl)c2)c1C)C(C)C(=O)OC` (stereo unspecified), for which the melting point fell in the range of 126 to 128 °C.

For the compound `COc1ccc(N2CCN(c3c(C)c(C)c4c(c3C)CC(C)(C)O4)CC2)cc1OC`, the melting point is 135 to 137 °C.

In turn, `CCOc1ccc(F)cc1C(C)(C)CC(O)(Cn1ccc(=O)c2ccccc21)C(F)(F)F` (stereo unspecified) displayed a melting point of 195 to 196 °C.

`CN(C)c1nonc1-c1nc2ccccc2n1CC(=O)c1ccc(Cl)cc1` displayed a melting point of 120 to 123 °C.

Turning to `CC(C)n1nc(-c2sc(NC(=O)c3ccc4ccccc4c3)nc2-c2ccccc2)ccc1=O`, the melting point fell in the range of 227 to 229 °C.

Take `O=S(=O)(O)CCCNc1cccc(O)c1`: the melting point is above 250 °C.

`COc1cc(C2C(=O)N(C)Cc3c2ccc(OC)c3OC(C)C)cc(OC)c1OC` (stereo unspecified) displayed a melting point of 128 to 129 °C.

Compound `Cc1cccc(C=CC(=O)c2ccc([N+](=O)[O-])cc2)c1` came in with a melting point of 130 to 132 °C.

For `Cc1cccc(C(=O)NCc2cccc3c2CN(C2CCC(=O)NC2=O)C3=O)c1` (stereo unspecified), the melting point was in the range of 253 to 255 °C.

Consider `NCc1cccc2ccc(C(=O)O)cc12`, for which the melting point lay within 223 to 225 °C.

In turn, `CCCCCCCCCC(=O)Nc1ccc(S(=O)(=O)Nc2nnc(CO)s2)cc1` returned a melting point of 69 to 70 °C.

Turning to `Cn1ccc(=O)c(OCc2ccccc2)c1C(O)c1cccnc1` (stereo unspecified), the melting point fell in the range of 169 to 174 °C.

The compound `COC(=O)O[C@@H]1[C@@H](c2ccccc2)Nc2c(ccn3c(C)c(C)nc23)[C@H]1OC` showed a melting point of 90 to 91 °C.

In the case of `Cc1ccc(-c2c(O)nc(S)nc2O)cc1`, the melting point is 290 to 292 °C.

On to `NS(=O)(=O)c1cc2c(cc1Cl)C(O)N(C1CCN(Cc3cccc(C(F)(F)F)c3)CC1)C2=O` (stereo unspecified), for which the melting point fell in the range of 204 to 205 °C.
